# Columns and labels:
# [1] = system: action potential (AP) morphology; conditions: blebbistatin 10 μM used to immobilize tissue; cited from earlier work
# human cardiac slices = assay: Acute vs chronic phenylephrine in cultured human cardiac slices, electrophysiology by optical mapping; format: cell-based; conditions: 3 μM phenylephrine, acute application vs slices cultured 24 hours in drug medium
# Experimental: Utilizing cultured slices and an adult dosage of phenylephrine, a widely used selective α1-adrenergic receptor agonist, a model to study chronic drug effects in human cardiac slices is developed. Slice electrophysiology was first acutely measured using optical mapping after application of 3 μM phenylephrine.
Structure (SMILES),effects in action potential (AP) morphology [1],"Two electrophysiology parameters, acute vs chronic stimulation modes (human cardiac slices)"
Cc1ccc2c(c1)C(=O)C1(O)CCN(c3ccccc3)C1=N2 (centres unmarked) [blebbistatin],no significant effects,
CNC[C@H](O)c1cccc(O)c1 [phenylephrine],,substantial difference
